Literature values, collected in patent US7423042B2, “Compounds” (Glaxo Group Limited, priority 2005, dated 2008).

How the values were obtained:
[1] = tested on: synthesis of pro-inflammatory proteins including IL-6, IL-8, GM-CSF, RANTES and COX-2; settings: a number of different cell types
[2] = tested on: TGF-β-induced increases in fibronectin and thrombospondin; settings: Laping et al., 2002

Compound | decreasing the synthesis of pro-inflammatory proteins (IL-6, IL-8, GM-CSF, RANTES, COX-2) [1] | inhibition of TGF-β-induced increases in fibronectin and thrombospondin [2]
Fc1ccc(-c2nc3n(c2-c2ccncc2)CCS3)cc1 [SK&F 86002] | effective | –
COc1nccc(-c2c(-c3ccc(F)cc3)ncn2C2CCNCC2)n1 [SB-242235] | – | inhibited
C[S+]([O-])c1ccc(-c2nc(-c3ccncc3)c(-c3ccc(F)cc3)[nH]2)cc1 (stereo not drawn) [SB-203580] | effective | –
